In brackets after ≈: the same amount, converted by molar mass. Like-named read-outs stand apart in the source and are kept apart here.
Key:
[1] = tested on: Escherichia coli ATCC 25922; experiment: MIC assay, antibiotic susceptible reference strain; format: cell-based; conditions: Escherichia coli, ATCC25922, read-out: Antimicrobial activity (MIC) E. c
Outline: (§1)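 Broth microdilution followed CLSI M07-A9 with modifications: inoculum ~2.5-3×10^4 cells/mL in Mueller-Hinton broth, mixed 1:1 with test derivative, incubated 48 h at 35 °C. MIC was the lowest concentration giving no growth by OD600, tested in three parallels, with oxytetracycline as reference antibiotic.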

[2] = tested on: Corynebacterium glutamicum ATCC 13032; experiment: MIC assay, antibiotic susceptible reference strain; format: cell-based; conditions: Corynebacterium glutamicum, ATCC13032, read-out: Antimicrobial activity (MIC) C. g
Outline: as §1

[3] = tested on: Staphylococcus aureus ATCC 9144; experiment: MIC assay, antibiotic susceptible reference strain; format: cell-based; conditions: Staphylococcus aureus, ATCC9144, read-out: Antimicrobial activity (MIC) S. a
Outline: as §1

[4] = tested on: Pseudomonas aeruginosa PA01, DSM 19880 (ATCC 15692); experiment: MIC assay, antibiotic susceptible reference strain; format: cell-based; conditions: Pseudomonas aeruginosa, read-out: Antimicrobial activity (MIC) P. a
Outline: as §1

[5] = tested on: human metastatic melanoma (A2058, ATCC CRL-11147) cells; experiment: Anti-cancer activity against A2058 cells; format: cell-based; conditions: A2058, read-out: Anti-cancer IC50
Outline: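 A2058 melanoma cells seeded at 2,000/well overnight, then exposed to a concentration range in serum-free MEM (gentamycin, NEAA, pyruvate, glutamine) for 24 h (cytotoxicity stated as after 72 h exposure). MTS-type tetrazolium reagent added for 1 h; absorbance at 485 nm; % survival versus medium and Triton X-100 controls.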

S. epidermidis = experiment: Anti-biofilm activity (inhibition of biofilm formation); format: cell-based; conditions: Staphylococcus epidermidis, read-out: Anti-biofilm IC50
E. coli 50579417 = experiment: MIC, multi-resistant clinical isolate; format: cell-based, Escherichia coli; conditions: for MIC: Escherichia coli, read-out: Antimicrobial activity (MIC); for selectivity index (EC50/MIC): RBC EC50 / MIC
Procedure: (§2) Working solutions of the test derivatives were prepared with up to 100% DMSO and stored at −20° C. If necessary, the solutions were heated to 40-80° C. before testing to facilitate complete dissolution. Double-distilled water was used in all dilutions prepared. […] A microdilution susceptibility test was used for MIC determination according to Clinical and Laboratory Standards Institute, “Methods for Dilution Antimicrobial Sisceptibility Tests for Bacteria That Graw Aerobically”, Approved Standard M07-A9, edition 2012, with modifications as described by Igumnova et al (Bioorg Med Chem, 2016, 24 (22), 5884-5894).
(§3) Briefly, the bacterial inoculum was adjusted to approximately 2.5-3×10^4 cells/mL in Mueller-Hinton broth (MHB, Difco Laboratories, USA), and incubated in a ratio of 1:1 with test derivatives in polystyrene 96-well flat-bottom microplates (NUNC, Roskilde, Denmark). Positive growth control (without test derivatives) and negative control (without bacteria) were included. The reference antibiotic was oxytetracycline hydrochloride (Sigma Aldrich, Saint Louis, Mo., USA). The microplates were incubated in an EnVision microplate reader (Perkin-Elmer, Turku, Finland) placed in an incubator set to 35° C. for 48 h. The MIC value was defined as the lowest concentration of derivative resulting in no bacterial growth as determined by OD600 measurement. All derivatives were tested in three parallels.
(§4) The MIC was determined as explained above with some exceptions; working solutions of test derivatives were prepared from concentrated DMSO stocks stored at room temperature, the density of the bacterial inoculum was increased 40× to 1-1.2×10^6 cells/mL, enterococci were incubated in Brain Heart Infusion broth (BHIB, Difco Laboratories, USA), the microplates were incubated for 24 h, and the derivatives were tested in four parallels.

E. coli 50857972 = experiment: MIC, multi-resistant clinical isolate; format: cell-based, Escherichia coli; conditions: for MIC: Escherichia coli, read-out: Antimicrobial activity (MIC); for selectivity index (EC50/MIC): RBC EC50 / MIC
Procedure: as §2, §3, §4

E. coli 50676002 = experiment: MIC, multi-resistant clinical isolate; format: cell-based, Escherichia coli; conditions: E. coli 50676002; for MIC: Escherichia coli, read-out: Antimicrobial activity (MIC); for selectivity index (EC50/MIC): RBC EC50 / MIC
Procedure: as §2, §3, §4

E. coli 50639799 = experiment: MIC, multi-resistant clinical isolate; format: cell-based, Escherichia coli; conditions: for MIC: Escherichia coli, read-out: Antimicrobial activity (MIC); for selectivity index (EC50/MIC): RBC EC50 / MIC
Procedure: as §2, §3, §4

E. coli 50739822 = experiment: MIC, multi-resistant clinical isolate; format: cell-based, Escherichia coli; conditions: for MIC: Escherichia coli, read-out: Antimicrobial activity (MIC); for selectivity index (EC50/MIC): RBC EC50 / MIC
Procedure: as §2, §3, §4

A. baumanii K12-21 = experiment: MIC, multi-resistant clinical isolate; format: cell-based, Acinetobacter baumannii; conditions: for MIC: Acinetobacter baumannii, K1221, read-out: Antimicrobial activity (MIC); for selectivity index (EC50/MIC): RBC EC50 / MIC
Procedure: as §2, §3, §4

A. baumanii K63-58 = experiment: MIC, multi-resistant clinical isolate; format: cell-based, Acinetobacter baumannii; conditions: A. baumanii K63-58, resistant to colistin; for MIC: Acinetobacter baumannii, K6358, 24 h, read-out: Antimicrobial activity (MIC); for selectivity index (EC50/MIC): RBC EC50 / MIC
Procedure: as §2, §3, §4

A. baumanii K55-13 = experiment: MIC, multi-resistant clinical isolate; format: cell-based, Acinetobacter baumannii; conditions: for MIC: Acinetobacter baumannii, K5513, read-out: Antimicrobial activity (MIC); for selectivity index (EC50/MIC): RBC EC50 / MIC
Procedure: as §2, §3, §4

E. faecium K36-18 = experiment: MIC, multi-resistant clinical isolate; format: cell-based, Enterococcus faecium; conditions: for MIC: Enterococcus faecium, K3618, read-out: Antimicrobial activity (MIC); for selectivity index (EC50/MIC): RBC EC50 / MIC, E. faecium K36-18
Procedure: as §2, §3, §4

E. faecium TUH50-22 = experiment: MIC, multi-resistant clinical isolate; format: cell-based, Enterococcus faecium; conditions: for MIC: Enterococcus faecium, TUH5022, read-out: Antimicrobial activity (MIC); for selectivity index (EC50/MIC): RBC EC50 / MIC
Procedure: as §2, §3, §4

E. faecium 50901530 = experiment: MIC, multi-resistant clinical isolate; format: cell-based, Enterococcus faecium; conditions: for MIC: Enterococcus faecium, read-out: Antimicrobial activity (MIC); for selectivity index (EC50/MIC): RBC EC50 / MIC
Procedure: as §2, §3, §4

E. faecium 50758899 = experiment: MIC, multi-resistant clinical isolate; format: cell-based, Enterococcus faecium; conditions: for MIC: Enterococcus faecium, read-out: Antimicrobial activity (MIC); for selectivity index (EC50/MIC): RBC EC50 / MIC
Procedure: as §2, §3, §4

E. faecium 50673722 = experiment: MIC, multi-resistant clinical isolate; format: cell-based, Enterococcus faecium; conditions: for MIC: Enterococcus faecium, read-out: Antimicrobial activity (MIC); for selectivity index (EC50/MIC): RBC EC50 / MIC
Procedure: as §2, §3, §4

[6] = tested on: panel of 30 multi-resistant clinical isolates of Gram-positive and Gram-negative bacteria; experiment: MIC screening, ranges over the panel of clinical isolates; format: cell-based
Procedure: as §2, §3, §4

Structure (SMILES)	MIC [1] [µg/mL]	MIC [2] [µg/mL]	MIC [3] [µg/mL]	MIC [4] [µg/mL]	IC50 [5] [µg/mL]	IC50 (S. epidermidis) [µg/mL]	MIC (E. coli 50579417) [µg/mL]	selectivity index (EC50/MIC) (E. coli 50579417)	MIC (E. coli 50857972) [µg/mL]	selectivity index (EC50/MIC) (E. coli 50857972)	MIC (E. coli 50676002) [µg/mL]	selectivity index (EC50/MIC) (E. coli 50676002)	MIC (E. coli 50639799) [µg/mL]	selectivity index (EC50/MIC) (E. coli 50639799)	MIC (E. coli 50739822) [µg/mL]	selectivity index (EC50/MIC) (E. coli 50739822)	MIC (A. baumanii K12-21) [µg/mL]	selectivity index (EC50/MIC) (A. baumanii K12-21)	MIC (A. baumanii K63-58) [µg/mL]	selectivity index (EC50/MIC) (A. baumanii K63-58)	other results
N=C(N)NCCCCN1C(=O)N(CCCCNC(=N)N)C(=O)C(Cc2ccc(F)c3ccccc23)(Cc2ccc(F)c3ccccc23)C1=O [8(v), 1,1′-(4,4′-(5,5-bis((4-fluoronaphthalen-1-yl)methyl)-2,4,6-trioxodihydropyrimidine-1,3(2H,4H)-diyl)bis(butane-4,1-diyl))diguanidine]	1 (≈ 1.49 µM)	0.25 (≈ 0.373 µM)	1 (≈ 1.49 µM)	4 (≈ 5.96 µM)	8 (≈ 11.9 µM)	1 (≈ 1.49 µM)	8 (≈ 11.9 µM)	(11)	4 (≈ 5.96 µM)	(22)	4 (≈ 5.96 µM)	(22)	4 (≈ 5.96 µM)	(22)	8 (≈ 11.9 µM)	(11)	8 (≈ 11.9 µM)	(11)	8 (≈ 11.9 µM)	(11)	MIC (A. baumanii K55-13): 8 µg/mL (≈ 11.9 µM); selectivity index (EC50/MIC) (A. baumanii K55-13): (11); MIC (E. faecium K36-18): 4 µg/mL (≈ 5.96 µM); selectivity index (EC50/MIC) (E. faecium K36-18): (22); MIC (E. faecium TUH50-22): 4 µg/mL (≈ 5.96 µM); selectivity index (EC50/MIC) (E. faecium TUH50-22): (22); MIC (E. faecium 50901530): 4 µg/mL (≈ 5.96 µM); selectivity index (EC50/MIC) (E. faecium 50901530): (22); MIC (E. faecium 50758899): 4 µg/mL (≈ 5.96 µM); selectivity index (EC50/MIC) (E. faecium 50758899): (22); MIC (E. faecium 50673722): 4 µg/mL (≈ 5.96 µM); selectivity index (EC50/MIC) (E. faecium 50673722): (22); MIC ([6]; read-out: MIC values against all the 30 multi-resistant clinical isolates): 2 to 16 µg/mL (≈ 2.98 to 23.9 µM)
CC(C)(C)c1ccc(CC2(Cc3ccc(C(C)(C)C)cc3)C(=O)N(CCCCNC(=N)N)C(=O)N(CCCCNC(=N)N)C2=O)cc1 [Compound 8(i), 1,1′-(4,4′-(5,5-bis(4-tert-butylbenzyl)-2,4,6-trioxodihydropyrimidine-1,3(2H,4H)-diyl)bis(butane-4,1-diyl))diguanidine]	2 (≈ 3.09 µM)	< 0.13	1 (≈ 1.55 µM)	4 (≈ 6.18 µM)	2 (≈ 3.09 µM)	1 (≈ 1.55 µM)	4 (≈ 6.18 µM)	(19)	4 (≈ 6.18 µM)	(19)	4 (≈ 6.18 µM)	(19)	4 (≈ 6.18 µM)	(19)	4 (≈ 6.18 µM)	(19)	4 (≈ 6.18 µM)	(19)	4 (≈ 6.18 µM)	(19)	MIC (A. baumanii K55-13): 8 µg/mL (≈ 12.4 µM); selectivity index (EC50/MIC) (A. baumanii K55-13): (10); MIC (E. faecium K36-18): 2 µg/mL (≈ 3.09 µM); selectivity index (EC50/MIC) (E. faecium K36-18): (39); MIC (E. faecium TUH50-22): 2 µg/mL (≈ 3.09 µM); selectivity index (EC50/MIC) (E. faecium TUH50-22): (39); MIC (E. faecium 50901530): 4 µg/mL (≈ 6.18 µM); selectivity index (EC50/MIC) (E. faecium 50901530): (19); MIC (E. faecium 50758899): 2 µg/mL (≈ 3.09 µM); selectivity index (EC50/MIC) (E. faecium 50758899): (39); MIC (E. faecium 50673722): 2 µg/mL (≈ 3.09 µM); selectivity index (EC50/MIC) (E. faecium 50673722): (39); MIC ([6]; Pseudomonas aeruginosa, read-out: MIC against P. aeruginosa): 8 to 16 µg/mL (≈ 12.4 to 24.7 µM); fold improvement in antimicrobial activity compared to the analogous amine barbiturate 7(i) ([6]; multi-resistant clinical isolates): up to 4 fold; MIC ([6]; read-out: MIC values against S. aurues, E. faecium and E. coli): 2 to 4 µg/mL (≈ 3.09 to 6.18 µM); MIC ([6]; read-out: MIC values against the Gram-negative multi-resistant clinical isolates of K. pneumoniae and A. baumanii): 4 to 8 µg/mL (≈ 6.18 to 12.4 µM)
